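Protocol summary: plate cells (96-well), add compound at 5 concentrations, incubate 48 h, interpolate endpoints linearly. The concentration for 50% growth inhibition is given as GI50.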 The source made the active and inactive calls. No stated cut-off is given here; in the data, active = GI50 up to about 1.1 µM and inactive = higher.
What was measured:
Test in all cases: growth of human tumour cells (NCI), 48 h
UACC-257 = system: UACC-257
Malme-3M = system: Malme-3M
SW-620 = system: SW-620
SF-295 = system: SF-295
HCT-116 = system: HCT-116
DMS-273 = system: DMS-273
SK-MEL-28 = system: SK-MEL-28
LXFL 529 = system: LXFL 529
SK-OV-3 = system: SK-OV-3
MDA-N = system: MDA-N
XF498 = system: XF498
SNB-75 = system: SNB-75
NCI/ADR-RES = system: NCI/ADR-RES
HOP-62 = system: HOP-62
M19-MEL = system: M19-MEL
SNB-19 = system: SNB-19
SF-539 = system: SF-539
HL-60 = system: HL-60
NCI-H460 = system: NCI-H460

Compound | GI50 (UACC-257) | GI50 (Malme-3M) | GI50 (SW-620) | GI50 (SF-295) | GI50 (HCT-116) | GI50 (DMS-273) | GI50 (SK-MEL-28) | GI50 (LXFL 529) | GI50 (SK-OV-3) | GI50 (MDA-N) | GI50 (XF498) | GI50 (SNB-75) | GI50 (NCI/ADR-RES) | GI50 (HOP-62) | GI50 (M19-MEL) | GI50 (SNB-19) | GI50 (SF-539) | GI50 (HL-60) | GI50 (NCI-H460)
CN(C)CCCCN1CCc2c(n(C)c3ccccc23)C1=O | 17.2 µM (inactive) | 21.7 µM (inactive) | 44.4 µM (inactive) | 48.4 µM (inactive) | 40.3 µM (inactive) | > 66.7 µM (inactive) | 20.3 µM (inactive) | 19.4 µM (inactive) | > 70 µM (inactive) | 13.4 µM (inactive) | 20.7 µM (inactive) | 34.1 µM (inactive) | 39.4 µM (inactive) | 51.3 µM (inactive) | 38 µM (inactive) | > 76.9 µM (inactive) | – | – | –
CC[P+](C)(Cc1ccccc1)c1ccccc1 (centres undefined) | > 100 µM (inactive) | 91.8 µM (inactive) | > 100 µM (inactive) | > 100 µM (inactive) | > 100 µM (inactive) | > 100 µM (inactive) | > 100 µM (inactive) | 74.6 µM (inactive) | > 100 µM (inactive) | – | 24.7 µM (inactive) | > 100 µM (inactive) | – | > 100 µM (inactive) | 43.4 µM (inactive) | > 100 µM (inactive) | > 100 µM (inactive) | 90.8 µM (inactive) | > 100 µM (inactive)
COc1cc2ccc(C(=O)O)cc2cc1OC | > 100 µM (inactive) | > 100 µM (inactive) | > 100 µM (inactive) | > 100 µM (inactive) | > 100 µM (inactive) | > 100 µM (inactive) | > 100 µM (inactive) | > 100 µM (inactive) | > 100 µM (inactive) | – | > 100 µM (inactive) | 37.4 µM (inactive) | – | > 100 µM (inactive) | > 100 µM (inactive) | > 100 µM (inactive) | > 100 µM (inactive) | – | > 100 µM (inactive)
O=C1C=C(c2ccccc2)NC1(c1ccccc1)c1cc(-c2ccccc2)[nH]c1-c1ccccc1 (centres undefined) | > 100 µM (inactive) | – | > 100 µM (inactive) | > 100 µM (inactive) | > 100 µM (inactive) | > 100 µM (inactive) | > 100 µM (inactive) | > 100 µM (inactive) | > 100 µM (inactive) | – | < 0.01 µM (active) | > 100 µM (inactive) | – | 2.21 µM (inactive) | > 100 µM (inactive) | > 100 µM (inactive) | > 100 µM (inactive) | > 100 µM (inactive) | > 100 µM (inactive)
O=C(CC/C(CC(=O)c1ccc(Cl)cc1)=N\O)Nc1cccc(Cl)c1 | > 100 µM (inactive) | > 100 µM (inactive) | > 100 µM (inactive) | > 100 µM (inactive) | – | > 100 µM (inactive) | > 100 µM (inactive) | > 100 µM (inactive) | > 100 µM (inactive) | – | > 100 µM (inactive) | 80.7 µM (inactive) | – | > 100 µM (inactive) | > 100 µM (inactive) | > 100 µM (inactive) | > 100 µM (inactive) | – | > 100 µM (inactive)
Cc1cc(C)c2c(c1)CN1CN2Cc2cc(C)cc(C)c21 | – | – | 31.5 µM (inactive) | 18.7 µM (inactive) | 19.4 µM (inactive) | 18.9 µM (inactive) | 16.5 µM (inactive) | 32.7 µM (inactive) | 27.8 µM (inactive) | – | 18.2 µM (inactive) | 4.36 µM (inactive) | – | 18.7 µM (inactive) | 23 µM (inactive) | < 0.01 µM (active) | > 10 µM (inactive) | 26.4 µM (inactive) | 15.9 µM (inactive)
O=C1C(Cl)=C(Cl)C(=O)N1c1cccc(C(F)(F)F)c1 | > 100 µM (inactive) | > 100 µM (inactive) | > 100 µM (inactive) | > 100 µM (inactive) | > 100 µM (inactive) | > 100 µM (inactive) | > 100 µM (inactive) | > 100 µM (inactive) | > 100 µM (inactive) | – | 3.77 µM (inactive) | > 100 µM (inactive) | – | > 100 µM (inactive) | > 100 µM (inactive) | > 100 µM (inactive) | > 100 µM (inactive) | > 100 µM (inactive) | > 100 µM (inactive)
CC(=O)N1CC2Nc3ccccc3C2CC1CO (centres undefined) | > 100 µM (inactive) | > 100 µM (inactive) | > 100 µM (inactive) | > 100 µM (inactive) | > 100 µM (inactive) | > 100 µM (inactive) | > 100 µM (inactive) | > 100 µM (inactive) | > 100 µM (inactive) | – | > 100 µM (inactive) | 17.7 µM (inactive) | – | > 100 µM (inactive) | > 100 µM (inactive) | > 100 µM (inactive) | > 100 µM (inactive) | > 100 µM (inactive) | > 100 µM (inactive)
